The values that follow come from ChEMBL document CHEMBL3817829, “Spirooxindoles as novel 3D-fragment scaffolds: Synthesis and screening against CYP121 from M. tuberculosis” (Bioorg Med Chem Lett, 2016).

Series [1] in a line: Solubility of compound in 50 mM Tris-Hcl/1mM EDTA at 1 mM at pH 7.5. It counts as physicochemical. Particulars: buffer, pH 7.5, 1000 µM.
Series [2] concerns the target T1, Mycocyclosin synthase (Mycobacterium tuberculosis, UniProt P9WPP7).
T1 sequence (P9WPP7 whole entry): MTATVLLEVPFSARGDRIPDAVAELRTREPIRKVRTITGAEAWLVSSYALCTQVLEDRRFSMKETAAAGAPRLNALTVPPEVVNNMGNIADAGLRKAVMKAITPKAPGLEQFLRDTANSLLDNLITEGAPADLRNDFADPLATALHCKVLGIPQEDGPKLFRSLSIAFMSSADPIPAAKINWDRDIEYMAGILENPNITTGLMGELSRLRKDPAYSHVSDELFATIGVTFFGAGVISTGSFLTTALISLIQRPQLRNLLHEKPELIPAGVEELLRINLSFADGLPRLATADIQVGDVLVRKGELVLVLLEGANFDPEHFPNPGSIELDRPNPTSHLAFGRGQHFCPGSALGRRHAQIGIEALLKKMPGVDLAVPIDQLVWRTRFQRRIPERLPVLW
The series is described as follows: Binding affinity to Mycobacterium tuberculosis recombinant His6-tagged CYP121 expressed in Escherichia coli C41(DE3) cells assessed as change in wavelength of heme soret band at 1 mM by UV-visible spectrophotometric method. Particulars: 1000 µM.

Series [3] concerns the target T1, Mycocyclosin synthase. The series is described as follows: Binding affinity to Mycobacterium tuberculosis recombinant His6-tagged CYP121 expressed in Escherichia coli C41(DE3) cells by isothermal titration calorimetry.

SMILES strings stand for the structures.

As for `N#CC1[C@@H]2C=C[C@@H](C2)C12C(=O)Nc1ccccc12` (mixture of isomers), the solubility entry in series [1] is “soluble”. Also, the Activity in series [2] was determined as 0 nm.

Take `N#CCC1C(=O)Nc2ccc(OC(F)(F)F)cc21` (configuration not stated): the solubility entry in series [1] is given as “soluble”. In series [2], the Activity is given as -2 nm.

Consider `CCOC(=O)/C=C1/C(=O)Nc2ccc(OC(F)(F)F)cc21`, for which the solubility result in series [1] is recorded as “soluble”. The Activity in series [2] is 0 nm.

Take `N#C/C=C1/C(=O)Nc2ccccc21`: the solubility result in series [1] is “soluble”. Further, in series [2], the Activity is 0 nm.

In the case of `CCOC(=O)[C@H]1[C@@H]2C=C[C@@H](C2)[C@]12C(=O)Nc1ccc(F)cc12`, in series [1], the solubility result is recorded as “soluble”. In addition, the Activity in series [2] was determined as 0 nm.

Regarding `CCOC(=O)[C@@H]1[C@@H]2C=C[C@@H](C2)[C@@]12C(=O)Nc1ccc(OC(F)(F)F)cc12`, in series [1], the solubility entry is given as “soluble”. The Activity in series [2] was found to be 0 nm.

Take `CCOC(=O)/C=C1/C(=O)N(C)c2ccccc21`: the solubility result in series [1] is given as “soluble”. For the same molecule, in series [2], the Activity was 0 nm.

On to `CCOC(=O)[C@@H]1[C@@H]2C=C[C@@H](C2)[C@@]12C(=O)Oc1ccccc12`, for which the solubility result in series [1] was “soluble”. In series [2], the Activity amounted to 0 nm.

For `CCOC(=O)[C@H]1[C@@H]2C=C[C@@H](C2)[C@]12C(=O)Nc1ccccc12`, the solubility entry in series [1] is listed as “soluble”. Moreover, the Activity in series [2] stood at 0 nm.

As to `CCOC(=O)[C@@H]1[C@@H]2C=C[C@@H](C2)[C@@]12C(=O)N(C(C)=O)c1ccccc12`, the solubility result in series [1] is “soluble”. Besides, the Activity in series [2] amounted to 0 nm.

As for `CCOC(=O)[C@H]1[C@@H]2C=C[C@@H](C2)[C@]12C(=O)Nc1ccc(Cl)cc12`, the solubility entry in series [1] was “soluble”. Moreover, the Activity in series [2] is listed as -1 nm.

For the molecule `CCOC(=O)[C@H]1[C@@H]2C=C[C@@H](C2)[C@]12C(=O)Nc1ccc(OC(F)(F)F)cc12`, in series [1], the solubility result is reported as “soluble”. In addition, in series [2], the Activity turned out to be 0 nm.

In the case of `CCOC(=O)/C=C1/C(=O)Sc2ccccc21`, the solubility entry in series [1] is on record as “soluble”. In addition, in series [2], the Activity was found to be 0 nm.

Consider `CCOC(=O)/C=C1/C(=O)Nc2ccc(F)cc21`, for which the solubility entry in series [1] is “soluble”. The Activity in series [2] turned out to be 0 nm.

Consider `N#CC1[C@@H]2C=C[C@@H](C2)C12C(=O)Nc1ccc(OC(F)(F)F)cc12` (mixture of isomers), for which the solubility result in series [1] is reported as “soluble”. In addition, the Activity in series [2] is given as 0 nm.

As for `CCOC(=O)[C@@H]1[C@@H]2C=C[C@@H](C2)[C@@]12C(=O)N(C)c1ccccc12`, the solubility result in series [1] is recorded as “soluble”. Also, in series [2], the Activity came to 0 nm.

As to `CN1C(=O)/C(=C/C#N)c2ccccc21`, in series [1], the solubility entry was “soluble”. Further, in series [2], the Activity was 0 nm.

Regarding `N#CCC1C(=O)Nc2ccccc21` (configuration not stated), the solubility entry in series [1] is given as “soluble”. Besides, the Activity in series [2] amounted to 0 nm.

Turning to `N#C/C=C1/C(=O)Nc2ccc(OC(F)(F)F)cc21`, the solubility entry in series [1] is recorded as “soluble”. Further, the Activity in series [2] is listed as 0 nm.

As for `CCOC(=O)[C@@H]1[C@@H]2C=C[C@@H](C2)[C@@]12C(=O)Sc1ccccc12`, the solubility result in series [1] is given as “soluble”. In addition, the Activity in series [2] is given as 0 nm.

As for `CCOC(=O)/C=C1/C(=O)N(C(C)=O)c2ccccc21`, the solubility result in series [1] is “soluble”. The Activity in series [2] amounted to 0 nm.

In the case of `CCOC(=O)/C=C1/C(=O)Nc2ccc([N+](=O)[O-])cc21`, the solubility entry in series [1] is listed as “Insoluble”. Moreover, the Activity result in series [2] is “ND(Insoluble)”.

Consider `CCOC(=O)[C@H]1[C@@H]2C=C[C@@H](C2)[C@]12C(=O)N(C)c1ccccc12`, for which the solubility result in series [1] is given as “soluble”. Also, in series [2], the Activity was -2 nm.

`N#C[C@H]1[C@@H]2C=C[C@@H](C2)[C@]12C(=O)Nc1ccccc12`: the solubility entry in series [1] is recorded as “soluble”. In addition, the Activity in series [2] amounted to 0 nm.

Consider `N#C[C@@H]1[C@@H]2C=C[C@@H](C2)[C@@]12C(=O)Nc1ccccc12`, for which the solubility entry in series [1] is given as “soluble”. The Activity in series [2] was determined as 0 nm.

`CCOC(=O)CC1C(=O)Nc2ccc(OC(F)(F)F)cc21` (configuration not stated): the solubility result in series [1] was “soluble”. Besides, in series [2], the Activity is given as 0 nm.

For the molecule `Nc1ccc2nccc(-n3cncn3)c2c1`, the Activity in series [2] is 3 nm. For the same molecule, the Kd (as a rule, the free concentration of one partner at which half of the binding sites on the other are occupied at equilibrium, for simple one-to-one binding) in series [3] was 28 µM.

As to `CCOC(=O)/C=C1/C(=O)Oc2ccccc21`, in series [1], the solubility entry was “soluble”. Besides, in series [2], the Activity was -1 nm.

For `CCOC(=O)CC1C(=O)Nc2ccc(Cl)cc21` (configuration not stated), in series [1], the solubility result is “soluble”. For the same molecule, the Activity in series [2] is 0 nm.

For `CN1C(=O)C(CC#N)c2ccccc21` (configuration not stated), the solubility result in series [1] is “soluble”. For the same molecule, in series [2], the Activity came out at 0 nm.

With `CCOC(=O)CC1C(=O)Oc2ccccc21` (configuration not stated), the solubility entry in series [1] is on record as “soluble”. The Activity in series [2] is 0 nm.

For `CCOC(=O)/C=C1/C(=O)Nc2ccccc21`, in series [1], the solubility result was “soluble”. The Activity in series [2] turned out to be 0 nm.

For the molecule `CCOC(=O)[C@@H]1[C@@H]2C=C[C@@H](C2)[C@@]12C(=O)Nc1ccc(F)cc12`, the solubility result in series [1] is “soluble”. Besides, the Activity in series [2] is recorded as 0 nm.

Turning to `CCOC(=O)[C@@H]1[C@@H]2C=C[C@@H](C2)[C@@]12C(=O)Nc1ccccc12`, in series [1], the solubility result is recorded as “soluble”. In series [2], the Activity is reported as -1 nm.

Take `CCOC(=O)/C=C1/C(=O)Nc2ccc(Cl)cc21`: the solubility result in series [1] is “Insoluble”. Moreover, in series [2], the Activity entry is “ND(Insoluble)”.

As to `CCOC(=O)[C@@H]1[C@@H]2C=C[C@@H](C2)[C@@]12C(=O)Nc1ccc(Cl)cc12`, the solubility result in series [1] is reported as “soluble”. For the same molecule, the Activity in series [2] is reported as 0 nm.

As to `CCOC(=O)CC1C(=O)Nc2ccc(F)cc21` (configuration not stated), the solubility entry in series [1] is “soluble”. In addition, the Activity in series [2] is recorded as 0 nm.

As to `CCOC(=O)[C@H]1[C@@H]2C=C[C@@H](C2)[C@]12C(=O)Sc1ccccc12`, the solubility entry in series [1] is given as “soluble”. The Activity in series [2] is reported as -1 nm.

For the molecule `CCOC(=O)[C@H]1[C@@H]2C=C[C@@H](C2)[C@]12C(=O)Oc1ccccc12`, the solubility result in series [1] is “soluble”. In addition, in series [2], the Activity is reported as -1 nm.

As for `CCOC(=O)[C@H]1[C@@H]2C=C[C@@H](C2)[C@]12C(=O)N(C(C)=O)c1ccccc12`, the solubility result in series [1] is given as “soluble”. Moreover, in series [2], the Activity was 0 nm.

As to `CCOC(=O)C1[C@@H]2C=C[C@@H](C2)C12C(=O)Nc1ccc([N+](=O)[O-])cc12` (mixture of isomers), the solubility entry in series [1] is on record as “Insoluble”. Further, in series [2], the Activity entry is “ND(Insoluble)”.
